Results: patent US4229466A, “Sesquiterpene derivatives having anti-complementary activity” (Otsuka Pharmaceutical Co., Ltd., priority 1977, dated 1980)
Where “and” joins values, the source holds several entries; their conditions need not be identical. Identical values can stand only once.

Tests used:
[1] = tested on: Nephrotoxin-Type Nephritis; experiment: Therapeutic effect on nephrotoxin-type nephritis (proteinuria); type: in vivo, male Wistar rats; conditions: for amount of proteinurea, Average: average of 3 replications; for amount of proteinurea, Average / amount of proteinurea: 7 days; for amount of proteinurea: individual replication
From the text: Rat nephrotoxin ("NT" for brevity) was obtained as described below. Rat kidney cortex was homogenized with an equal quantity of physiological saline. The homogenized mixture was mixed with Freund's complete adjuvant (a product of Difco Company) in a volume ratio of 1:1. Two milliliters of the resulting mixture was intramuscularly injected into a rabbit (body weight 3,100 g) to immunize the rabbit. A month and a half later, blood was taken from the heart of the rabbit and serum was obtained. The resulting serum was inactivated at 56° C. for 30 minutes, then salted out with a 40% saturated aqueous solution of ammonium sulfate, and fractionated. The γ-globulin (IgG) fraction was collected to obtain NT.
The evaluation was carried out using male Wistar rats with a body weight of 150 to 160 g with three replications for each test compound. The test compound was intraperitoneally administered once every 24 hours for seven days. One hour after the administration of the test compound on the third day, the NT was applied. The NT was intravenously injected in an amount of 1 ml at a tail vein of each rat. Chlorophyllin (CP) was used as a comparison compound, and physiological saline solution was used as a control.
The proteinuria level (total amount excreted into the urine over a 24 hour period) was measured using turbidometry employing bovine serum albumin as a control by means of sulfosalicylic acid.

[2] = tested on: complement serum (guinea pig complement); experiment: Anti-complement activity: 50% inhibition of hemolysis of sensitized erythrocytes; type: cell-based; conditions: Cavia porcellus, Erythrocyte, 1 h, 37° C., 60 minutes, guinea pig complement diluted 150 times, OD413, read-out: Anti-Complement Activity Value (50% hemolysis inhibitory activity value)
Description: The anti-complement activity was measured and confirmed by the testing method described in Meneki Kagaku (Immuno-Chemistry), Yuichi Yamamura et al., Ed. pages 830-834, Asakura Shoten, Tokyo, Japan (1973). Specifically,a test tube was charged with 0.5 ml of an aqueous dispersion of each of the test compounds, 0.5 ml of sensitized erythrocytes (EA) containing 1×10^8 cells/ml, 1 ml of a 5-fold diluted solution of a Veronal buffer solution containing gelatin, Ca^++ and Mg^++ (GVB^++), and 0.5 ml of complement serum (guinea pig complement) diluted to 150 times with the GVB^++. The mixture was maintained hot at 37° C. for 60 minutes. Then, 5 ml of an ice-cold physiological saline solution was added thereto, and the mixture was centrifuged. […] The 50% hemolysis inhibitory activity value (γ/ml) measured by the above method is shown in Table 2 below for each test compound.

[3] = Acute toxicity on intravenous administration to mice; conditions: mouse, in vivo
Heymann-type Nephritis = experiment: Therapeutic effects on Heymann-type nephritis (proteinuria); type: in vivo, male Wistar rats; conditions: for amount of proteinurea, Average: average of 3 replications; for amount of proteinurea: individual replication
Description: Male Wistar rats with a body weight of 180 to 200 g were used in the test. Rat kidney cortex was extracted, and homogenized with an equal quantity by volume of a physiological saline solution. The homogenate was centrifuged at 1500 G for 1 hour. The supernatant liquid was purified in accordance with the method of T. S. […] The resulting mixture was injected intraperitoneally into isologous rats in an amount of 0.5 ml per rat. […] (This period was about 6 to 8 weeks.) […] CP was used as a comparison compound, and physiological saline solution was used as a control. Three replications were conducted for each test compound.

[4] = Day 1, 3 mg per rat i.p. once daily
[5] = Day 4, 3 mg per rat i.p. once daily
[6] = Day 7, 3 mg per rat i.p. once daily
[7] = Day 10, 3 mg per rat i.p. once daily
[8] = Before Administration, group of 3 mg per rat i.p.
[9] = Day 1, 3 mg per rat i.p. once a day, 7 days
[10] = Day 4, 3 mg per rat i.p. once a day, 7 days
[11] = Day 7, 3 mg per rat i.p. once a day, 7 days
[12] = Day 14, 3 mg per rat i.p. once a day, 7 days
[13] = Day 21, 3 mg per rat i.p. once a day, 7 days
[14] = Day 1, 5 mg per rat i.p. once daily
[15] = Day 4, 5 mg per rat i.p. once daily
[16] = Day 7, 5 mg per rat i.p. once daily
[17] = Day 10, 5 mg per rat i.p. once daily
[18] = Before Administration, group of 5 mg per rat i.p.
[19] = Day 1, 5 mg per rat i.p. once a day, 7 days
[20] = Day 4, 5 mg per rat i.p. once a day, 7 days
[21] = Day 7, 5 mg per rat i.p. once a day, 7 days
[22] = Day 14, 5 mg per rat i.p. once a day, 7 days
[23] = Day 21, 5 mg per rat i.p. once a day, 7 days

## CC1CCC2C(C)(C)C(O)C(O)CC2(C)C12Cc1c(O)cc(C=CC(=O)O)c(C=CC(=O)O)c1O2 (stereo not drawn) [(7), 6,7-Dihydroxy-2,5,5,8a-tetramethyl-1,2,3,4,4a,5,6,7,8,8a-decahydronaphthalene-1-spiro-2'-[6',7'-di-(2-carboxyvinyl)-4'-hydroxy-2',3'-dihydrobenzofuran]]
[1]; same test as Table 3, result in words
  inhibition of the primary reaction of nephrotoxin-type nephritis: found to inhibit the primary reaction
[2]
  IC50: 80 µg/mL
[3]
  LD50: 150 mg/kg
Heymann-type Nephritis; test of Table 4, result in words
  activity of curing Heymann-type nephritis: a substantial activity of curing Heymann-type nephritis

## CC1CCC2C(C)(C)C(O)C(O)CC2(C)C12Cc1c(O)cc(C=O)c(C=O)c1O2 (stereo not drawn) [(1), 6,7-Dihydroxy-2,5,5,8a-tetramethyl-1,2,3,4,4a,5,6,7,8,8a-decahydronaphthalene-1-spiro-2'-(6',7'-diformyl-4'-hydroxy-2',3'-dihydrobenzofuran)]
[1]; [4]
  amount of proteinurea, Average: 2.8 mg/day
  amount of proteinurea: 2.5 mg/day and 4.3 mg/day and 1.7 mg/day
[1]; [5]
  amount of proteinurea, Average: 1.6 mg/day
  amount of proteinurea: 1.5 mg/day and 2.1 mg/day and 1.1 mg/day
[1]; [6]
  amount of proteinurea, Average: 1.2 mg/day
  amount of proteinurea: 0.8 mg/day and 1.8 mg/day and 0.9 mg/day
[1]; [7]
  amount of proteinurea, Average: 8 mg/day
  amount of proteinurea: 8 mg/day and 10 mg/day and 7 mg/day
[2]
  IC50: 10 µg/mL
[3]
  LD50: 40 mg/kg
Heymann-type Nephritis; [8]
  amount of proteinurea, Average: 116 mg/day
  amount of proteinurea: 95 mg/day and 132 mg/day and 121 mg/day
Heymann-type Nephritis; [9]
  amount of proteinurea, Average: 111 mg/day
  amount of proteinurea: 90 mg/day and 125 mg/day and 120 mg/day
Heymann-type Nephritis; [10]
  amount of proteinurea, Average: 61 mg/day
  amount of proteinurea: 47 mg/day and 65 mg/day and 70 mg/day
Heymann-type Nephritis; [11]
  amount of proteinurea, Average: 26 mg/day
  amount of proteinurea: 17 mg/day and 35 mg/day and 27 mg/day
Heymann-type Nephritis; [12]
  amount of proteinurea, Average: 11 mg/day
  amount of proteinurea: 9 mg/day and 15 mg/day and 10 mg/day
Heymann-type Nephritis; [13]
  amount of proteinurea, Average: 10 mg/day
  amount of proteinurea: 10 mg/day and 12 mg/day and 9 mg/day

## CC1CCC2C(C)(C)C(O)C(O)CC2(C)C12Cc1c(O)cc(C=C(C#N)C(=O)O)c(C=C(C#N)C(=O)O)c1O2 (stereo not drawn) [(6), 6,7-Dihydroxy-2,5,5,8a-tetramethyl-1,2,3,4,4a,5,6,7,8,8a-decahydronaphthalene-1-spiro-2'-[6',7'-di-(2-cyano-2-carboxyvinyl)-4'-hydroxy-2',3'-dihydrobenzofuran]]
[1]; [14]
  amount of proteinurea, Average: 2.5 mg/day
  amount of proteinurea: 2.1 mg/day and 1.5 mg/day and 3.7 mg/day
[1]; [15]
  amount of proteinurea, Average: 1.8 mg/day
  amount of proteinurea: 1.9 mg/day and 1.2 mg/day and 2.3 mg/day
[1]; [16]
  amount of proteinurea, Average: 1.0 mg/day
  amount of proteinurea: 0.8 mg/day and 0.9 mg/day and 1.4 mg/day
[1]; [17]
  amount of proteinurea, Average: 10 mg/day
  amount of proteinurea: 13 mg/day and 7 mg/day and 9 mg/day
[2]
  IC50: 40 µg/mL
[3]
  LD50: 250 mg/kg
Heymann-type Nephritis; [18]
  amount of proteinurea, Average: 121 mg/day
  amount of proteinurea: 98 mg/day and 127 mg/day and 139 mg/day
Heymann-type Nephritis; [19]
  amount of proteinurea, Average: 116 mg/day
  amount of proteinurea: 113 mg/day and 121 mg/day and 116 mg/day
Heymann-type Nephritis; [20]
  amount of proteinurea, Average: 56 mg/day
  amount of proteinurea: 48 mg/day and 63 mg/day and 57 mg/day
Heymann-type Nephritis; [21]
  amount of proteinurea, Average: 37 mg/day
  amount of proteinurea: 36 mg/day and 47 mg/day and 29 mg/day
Heymann-type Nephritis; [22]
  amount of proteinurea, Average: 17 mg/day
  amount of proteinurea: 18 mg/day and 21 mg/day and 13 mg/day
Heymann-type Nephritis; [23]
  amount of proteinurea, Average: 12 mg/day
  amount of proteinurea: 8 mg/day and 15 mg/day and 14 mg/day
